Data from patent US9480701B2, “Low anticoagulant heparins” (priority 2012, dated 2016).
“Also recorded” adds a separate entry of the source. Read-outs that look alike come from different tables or passages of the source.

Key:
[1] = tested on: binding of pE to endothelial cells; assay: Cytoadherence blocking and disruption, dynamic incubation; type: cell-based, Plasmodium falciparum; settings: for Binding of pE to endothelial cell inhibited or reversed: parasite FCR3S1.2, FIG. 7
[2] = tested on: factor Xa; settings: for comparison; not said whether anti-factor Xa or anti-factor IIa; cited from earlier work
[3] = Coagulation parameters (APTT, PT) in citrate plasma of dosed rats; type: in vivo, Sprague-Dawley rats
Protocol: (§1) Heparin and a LMWH preparation (Fragmin) were also studied for comparison. Basic test procedures were as follows:
Forty minutes after dosing, the rats were sacrificed by full bleeding. Citrate stabilized plasma was prepared from the blood. Plasma was stored in aliquots of 1 or 0.5 mL at −70° C. until analysis of APTT and PT.
(§2) The following compounds and doses were tested (each in groups of 8 rats) in juvenile rats of age 14±1 days: • 2. Saline: (Negative Control) • 3.

[4] = tested on: merozoite invasion of erythrocytes (P. falciparum, parasite FCR3S1.2); assay: Merozoite invasion inhibition assay; type: cell-based; settings: for Merozoite invasion into fresh red blood cells inhibited: parasite FCR3S1.2, FIG. 8
Protocol: The merozoite invasion inhibition assay was performed with chemically modified heparin and unfractionated heparin Mature pE (trophozoite) synchronized P. falciparum cultures with a parasitemia of 0.4% and a hematocrit of 2% were grown in micro-cultures (100 ul) in the presence of increasing concentrations of chemically modified heparin or unfractionated heparin at 37° C. for 24-30 h. In order to quantify the parasitemia, the samples were stained for 10 s with acridine orange and then analyzed using a FACS instrument from Becton Dickinson. A minimum of 50,000 cells per sample were collected.

[5] = Rat tail incision bleeding time after i.v. dosing; type: in vivo, Sprague-Dawley rats
Protocol: as §1
The incision was 9 mm long and 1 mm deep and was standardized using a template device. Blood was blotted from the incision until bleeding stopped. The time during which visible bleeding could be observed was measured, for up to 25 minutes. The longer the bleeding time, the more pronounced the anti-coagulant effects of the administered agent.
as §2

[6] = tested on: rosettes of the parasite FCR3S1.2; assay: Rosette disruption in vitro, parasite clone FCR3S1.2 and parasite cultures; type: cell-based, Plasmodium falciparum; settings: for Disruption of rosettes: parasite FCR3S1.2, FIG. 5
[7] = biological target: factor IIa (Homo sapiens, UniProt P00734)
[8] = tested on: factor Xa
[9] = tested on: rosettes of fresh isolates of children with severe, complicated or mild malaria; settings: 100 and 1000 μg/ml, FIG. 6
[10] = tested on: P. falciparum-infected erythrocytes sequestered in the lungs
Protocol: Human pE were cultivated in vitro and enriched to a parasitemia above 70%. Prior to injection into the animals, human infected erythrocytes were radioactively labeled with ^99mTc. The rats were anaesthetized and the labeled pE erythrocytes were injected intravenously into the tail vein. […] The distribution of the labeled cells was monitored using a gamma camera for 30 min. The relative amount of labeled cells sequestered in the lungs was calculated by comparing the activity of excised lungs to that of the whole animal.

[11] = rat bleeding model, normalized to unfractionated heparin = 1

Substance: Heparin [reference compound]
- Binding of pE to endothelial cell inhibited or reversed [1]: dose dependent manner
- Specific anti-coagulant activity, value corresponding to Table 5 [2]: at least 180 IU/mg
- Relative Doses (estimated equipotent relative doses), APTT ([3]; rat, in vivo): 1
- Merozoite invasion into fresh red blood cells inhibited [4]: dose dependent manner
- Relative Doses (estimated equipotent relative doses), Bleeding time ([5]; rat, in vivo): 1
- Anti-coagulant effect (bleeding time and coagulation parameters) ([5]; rat, in vivo, iv): profound effect on all parameters
- Disruption of rosettes [6]: dose dependent manner

Substance: sevuparin sodium [DF02]
- Cytoadherence disruption: reduction of binding ([1]; pE adhered to the endothelium before incubation, FIG. 7): Up to 80%
- Cytoadherence blocking: binding of pE blocked compared with untreated samples ([1]; pE and substance added simultaneously to the endothelium): Up to 80%
- Binding of pE to endothelial cell inhibited or reversed [1]: dose dependent manner
- Effect on PT ([3]; adult rats, i.v.): too weak to allow for comparative estimates
- Effect on PT ([3]; juvenile rats, age 14±1 days): weak
- Relative Doses (estimated equipotent relative doses), APTT [3, 11]: 30-40
- Anticoagulant FIIa activity ([7]; drug substance Batch 1): 4.6 IU/mg
- Anticoagulant FIIa activity ([7]; drug substance Batch 2): 5.0 IU/mg
- Anticoagulant FIIa activity ([7]; drug substance Batch 3): 3.8 IU/mg
- Inhibitory effect on merozoite invasion compared with heparin ([4]; in vitro): equal potency per mg to heparin; also recorded: equal to those of standard heparin
- Merozoite invasion into fresh red blood cells inhibited [4]: dose dependent manner
- Anti-coagulant effect (bleeding time and coagulation parameters) ([5]; adult rats, i.v.): low anti-coagulant effect
- Anti-coagulant effect (bleeding time and coagulation parameters) ([5]; juvenile rats, age 14±1 days): low anti-coagulant effect
- Relative Doses (estimated equipotent relative doses), Bleeding time [5, 11]: 30-50
- Anticoagulant activity anti-factor Xa ([8]; drug substance Batch 1): 3.9 IU/mg
- Anticoagulant activity anti-factor Xa ([8]; drug substance Batch 2): 4.9 IU/mg
- Anticoagulant activity anti-factor Xa ([8]; drug substance Batch 3): 5.5 IU/mg
- Sensitivity of rosettes of fresh isolates to treatment [9]: sensitive
- Disruption of rosettes at highest concentration ([6]; 1000 μg/ml, with some parasites): total or close to total disruption of rosettes
- Disruption of rosettes [6]: dose dependent manner
- Sequestration of infected erythrocytes in the lungs of rats ([10]; FIG. 9): can be inhibited
- Retention of uninfected labeled human erythrocytes, co-injection versus no substance ([10]; rat): No difference was seen
